# Data taken from US5500430A, “Amidic derivatives of glutamic, aspartic and 2-amino adipic acids, a process for preparing same, and anti-gastrin composition containing the derivatives” (Rotta Research Laboratorium S.p.A., priority 1990, dated 1996).
# Read-outs that look alike come from different tables or passages of the source.
# Experiments:
# [1] = system: gastric acid secretion induced by pentagastrin; test: Antisecretive activity in anaesthetised rats (pentagastrin-stimulated gastric acid secretion); assay type: in vivo
# Description: Antisecretive activity in anaesthetised rats
# Antisecretive activity in rats was determined with the use of male animals each weighing about 200 g, anaesthetised with urethane. Gastric secretion was stimulated with pentagastrin. The method of K. S. Lai (Gut 5, (1964), 327-341) was used, slightly modified.
# After tracheotomy, cannulae were inserted in the oesophagus and the duodenum. A tepid solution. (37° C.) of 0.25 mM NaOH was perfused and passed through the stomach by means of a peristaltic pump at a constant flow rate of 1 ml/minute. After stabilisation for 20 minutes, the stimulating agent, dissolved in a physiological solution, was perfused for 120 minutes at a dose of 30 mcg/Kg/h in a volume of 0.95 ml/hour. After perfusion for 60 minutes (the basal stimulation), the product under test was administered as an intravenous bolus (I.V.) and the perfusion of the stimulant continued for a further 60 minutes. Acid secretion was recorded continuously as a function of time.
# (§1) The activity of the product was evaluated as the percentage reduction in the secreted acidity after the administration of the product compared with the base acidity measured during the first 60 minutes of collection during which only the pentagastrin was present.
# Different doses of the antagonist compounds tested were administered so that an ID50, that is, the dose (in mg/Kg I.V.) capable of inhibiting the effect of pentagastrin by 50%, could be calculated.
# The results thus obtained are illustrated in the following table (Table 1) in which the activities of the compounds are expressed as the ID50s under the stimulus of 30 mcg/Kg/h of pentagastrin.
# [2] = system: gastric acid secretion induced by pentagastrin; test: Antisecretive activity in conscious dogs carrying gastric fistulae; assay type: in vivo, dogs (beagles); settings: for ED50: Canis lupus familiaris, iv, read-out: ID50 (the source's name)
# Description: Antisecretive activity in conscious dogs
# Male beagles weighing about 10 Kg were used and carried gastric fistulae at the level of the greater curvature, connected near the antral region, steel cannulae 5 cm long and 2 cm wide being inserted for collecting the gastric juices externally. After a period of about one month to recover from the operation, and after suitable conditioning, the animals were treated with pentagastrin at a dose of 3 mcg/Kg/h. The Stimulant, dissolved in a physiological solution, was perfused into the femoral vein for 180 minutes at a rate of 1.9 ml/h. After perfusion for 60 minutes (the basal stimulation) the product under test, dissolved in a physiological solution (1 ml/Kg), was administered in a bolus into the contra-lateral vein and, at the same time, the perfusion of the stimulant continued for a further 120 minutes. The acid secretion was recorded continuously as a function of time.
# as §1, with “present, for each of the periods 0-60 and 60-120 minutes after the product had been administered in a bolus.” for “present.”
# Different doses of the compounds (C-1 and C-5) tested were administered so that an ID50, that is the dose (in mg/Kg I.V.) capable of inhibiting the effect of the pentagastrin by 50% could be calculated.
# The results obtained are given in the following table (Tab. 2) in which the % variations from the base (the mean ± standard deviations calculated on the values obtained from 4 animals) are given for the various doses administered under the stimulus of 3 mcg/Kg/h of pentagastrin, as well as the activities of the compounds, calculated as their ID50s, and the correlation coefficients of the regression lines calculated on the basis of the experimental data.
# [3] = target: T1, gastrin receptor sites on the cerebral cortex membranes of mice (Mus musculus, UniProt P56481); test: Inhibition of the binding of pentagastrin to mouse cortical membranes
# T1 construct: Mouse cortical tissue; from tissue; host or cells: mouse cerebral cortex membranes
# T1 sequence (P56481 1-453): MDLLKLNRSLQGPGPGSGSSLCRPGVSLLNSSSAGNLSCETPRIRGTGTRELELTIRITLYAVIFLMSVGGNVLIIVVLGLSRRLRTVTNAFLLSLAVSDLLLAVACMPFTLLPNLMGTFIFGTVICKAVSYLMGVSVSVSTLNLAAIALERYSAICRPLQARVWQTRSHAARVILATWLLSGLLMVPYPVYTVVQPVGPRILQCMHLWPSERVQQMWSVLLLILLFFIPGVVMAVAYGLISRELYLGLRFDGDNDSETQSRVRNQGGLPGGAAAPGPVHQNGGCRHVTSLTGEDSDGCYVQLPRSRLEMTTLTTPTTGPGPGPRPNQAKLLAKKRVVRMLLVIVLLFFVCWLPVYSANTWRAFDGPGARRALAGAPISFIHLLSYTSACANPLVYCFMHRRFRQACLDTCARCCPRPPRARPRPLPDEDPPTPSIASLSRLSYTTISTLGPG
# Source text: Tests on binding to cerebral cortex membranes of mice
# The capacities of some of the compounds of the invention to inhibit the binding of pentagastrin to the gastrin receptor sites on the cerebral cortex membranes of mice was to be evaluated. Pentagastrin tritiate[beta-alanyl-3-3H(N)] was used as the ligand.
# Mouse cortical tissue Was homogenised cold in 20 volumes of tris buffer (pH 7.7). After washing and centrifuging, the final pellet was resuspended in 20 volumes of binding buffer containing, inter alia, TRIS, BSA and Bacitracin. 0.4 ml of the membrane thus obtained were then incubated with a radioactive tracer and the compounds under test for 40 minutes at 37° C.
# After the supernatant liquid had been removed by centrifuging, the radioactivity associated with the pellet was determined with a liquid scintillator (a beta-counter). The specific binding was the difference between the binding in the absence and in the presence of 10^-5M pentagastrin.
# [4] = system: guinea-pig gall bladder contracted with CCK-8; test: Anticholecystokinin (anti-CCK) activity on guinea-pig gall bladders stimulated by CCK-8 in vitro; settings: CCK-8 concentration 10 ng/ml, Krebs, 32° C.
# Description: Anticholecystokinin (anti-cc, K) activity
# In order to confirm the hypothesis that the molecular conformations of the compounds of the invention are suitable to provide them with antagonistic activity towards CCK as well as towards gastrin, the anticontracturant activities of some of the compounds of the invention were tested on guinea-pig gall bladders stimulated by CCK-8 in vitro.
# A longitudinal strip of guinea-pig gall bladder was placed in a bath for isolated organs in the presence of Krebs at a temperature of 32° C. and oxygenated continuously with an oxygen-CO2 mixture (95-5 V/V).
# The isometric contractions were detected by means of a force transducer and recorded.
# The gall bladder was contracted with the use of a concentration of 10 ng/ml of CCK-8; the antagonistic activities of the compounds towards the contracturant effect of the CCK was determined with the use of different concentrations, thus determining the IC50 values, that is, the concentration of the compound in mcg/ml which can antagonise the contracturant effect of CCK by 50%.
# fundic and colic mucosae = settings: rats; cited from earlier work
# [5] = system: transplantable mouse colic tumour; settings: Winsell et al., Surgical Forum, 33, 384 (1982); cited from earlier work
# fundic mucosa = test: Fundic mucosa hyperplasia induced by pentagastrin in mice; assay type: in vivo; settings: 21 days
# Source text: (§2) Inhibitory effect on the rate of growth of tumorous colic cells induced by pentagastrin
# (§3) Gastrin has a trophic effect on the digestive epithelium.
# (§4) Upon the basis of this premise, it was wished to investigate whether the gastrin-specific antagonists of the invention could antagonise the growth of experimentally-induced gastrointestinal tumours.
# (§5) Male mice weighing 20-25 g were inoculated subcutaneously in the interscapular region with a suspension of 8×10^4 tumour cells of a mouse colic adenocarcinoma.
# (§6) After 21 days, the animals were killed and the fundic mucosa and the tumours were removed, weighed and extracted to determine the DNA.
# [6] = system: mouse colic adenocarcinoma; test: Colic tumorous growth induced by pentagastrin in mice; assay type: in vivo; settings: 21 days
# Source text: as §2, §3, §4, §5, §6
# [7] = pentagastrin alone, 250 mcg/Kg twice a day
molecule,measurement,setting,value
O=C(O)CC[C@@H](NC(=O)c1cccc(Cl)c1)C(=O)N1CCC2(CCCC2)CC1 [Compound C1],ED50,"[1]; Rattus norvegicus, iv, anaesthetised male rats, pentagastrin 30 mcg/Kg/h, I.V. bolus, IN with bound, read-out: Antagonistic activity (ID50) towards gastric acid secretion induced by pentagastrin",20 mg/kg
same,Antigastrin activity (in words),"[1]; anaesthetised rats, pentagastrin 30 mcg/Kg/h",particularly favourable
same,Activity on the peripheral gastrin (gastric secretion) receptor relative to compound C2 (times more active),"[1]; rats, vs C2",about 1.5 times
same,Variation % (Mean ± SD) from base (0-60 min),"[2]; 5 mg/Kg I.V., period 60-120 min",-18.2 ± 0.3%
same,Variation % (Mean ± SD) from base (0-60 min),"[2]; 5 mg/Kg I.V., period 120-180 min",-22.8 ± 16.7%
same,Variation % (Mean ± SD) from base (0-60 min),"[2]; 10 mg/Kg I.V., period 60-120 min",-38.9 ± 7.9%
same,Variation % (Mean ± SD) from base (0-60 min),"[2]; 10 mg/Kg I.V., period 120-180 min",-14.3 ± 8.5%
same,Variation % (Mean ± SD) from base (0-60 min),"[2]; 20 mg/Kg I.V., period 60-120 min",-49.5 ± 4.2%
same,Variation % (Mean ± SD) from base (0-60 min),"[2]; 20 mg/Kg I.V., period 120-180 min",-26.1 ± 6.4%
same,Variation % (Mean ± SD) from base (0-60 min),"[2]; 30 mg/Kg I.V., period 60-120 min",-61.1 ± 12.5%
same,Variation % (Mean ± SD) from base (0-60 min),"[2]; 30 mg/Kg I.V., period 120-180 min",-56.7 ± 19.5%
same,Variation % (Mean ± SD) from base (0-60 min),"[2]; 40 mg/Kg I.V., period 60-120 min",-63.4 ± 11.5%
same,Variation % (Mean ± SD) from base (0-60 min),"[2]; 40 mg/Kg I.V., period 120-180 min",-43.4 ± 10.3%
same,Variation % (Mean ± SD) from base (0-60 min),"[2]; 60 mg/Kg I.V., period 60-120 min",-74.2 ± 5.6%
same,Variation % (Mean ± SD) from base (0-60 min),"[2]; 60 mg/Kg I.V., period 120-180 min",-79.9 ± 1.6%
same,ED50,"[2]; 1 h, conscious dogs, I.V. bolus, period 60-120 min (first hour after administration)",19.7 mg/kg
same,ED50,"[2]; 2 h, conscious dogs, I.V. bolus, period 120-180 min (second hour after administration)",31.5 mg/kg
same,ID50,"[2]; conscious dogs, I.V. bolus, period 60-120 min (first hour after administration), 60 min",about 20 mg/Kg
same,Inhibition of gastric acid secretion induced by pentagastrin in dogs (in words),"[2]; conscious dogs, first hour after bolus",potent inhibitors of gastric acid secretion induced by pentagastrin in dogs
same,Activity relative to the corresponding S enantiomer (times more active),[3]; R series vs S enantiomers (C1 vs C32),about 50 times
same,IC50,"[3]; pentagastrin tritiate ligand, 40 minutes at 37° C., read-out: IC50, inhibition of the binding of pentagastrin",470 nM
same,Central activity relative to C2,[3]; vs C2,only one third as active as C2 centrally
same,Anti-CCK activity IC50,[4],20 µg/mL
gastrin,Trophic effect of chronic administration,fundic and colic mucosae,causes hyperplasia of the fundic and colic mucosae
same,Effect on growth of a transplantable mouse colic tumour,[5],stimulates the growth of a transplantable mouse colic tumour
"CSCC[C@H](NC(=O)[C@H](Cc1c[nH]c2ccccc12)NC(=O)CCNC(=O)OC(C)(C)C)C(=O)N[C@@H](CC(=O)O)C(=O)N[C@@H](Cc1ccccc1)C(N)=O [Pentagastrin, pentagastrin, reference compound]",IC50,[3],2.5 nM
same,Effect on the fundic mucosa (in words),fundic mucosa; mice,induces significant hyperplasia in the fundic mucosa
same,"Fundic DNA, Mean ± SD",fundic mucosa; [7],0.330 ± 0.05 mg
same,"Weight of the mucosa fundica, Mean ± SD",fundic mucosa; [7],32.0 ± 3.50 mg
same,Effect on colic tumour weight and DNA content (in words),[6]; mice,a significant increase in the weight of the colic tumour and the DNA content
same,"Tumorous DNA, Mean",[6]; [7],3.62 ± 0.50 mg
same,"Weight of the colic tumor, Mean ± SD",[6]; [7],657.0 ± 97.7 mg
same,Trophic effect of chronic administration,fundic and colic mucosae,causes hyperplasia of the fundic and colic mucosae
